In EP2423181A1, “Multitarget substituted biphenyl diol derivatives” (PROUS INSTITUTE FOR BIOMEDICAL RESEARCH S.A., priority 2010, dated 2012):
Counter-ions that a name gives are not always drawn.

How the values were obtained:
[1] = target: T1, Gonadotrophin-releasing hormone receptors (GnRH, LH-RH)R (Homo sapiens, UniProt P30968); assay: GnRH radioligand binding assay; conditions: GnRH radioligand binding, 10 µM; read-out: % Inhibition at 10 µM
T1 construct: expressed in transfected cells; host or cells: Chem-1 cells
T1 sequence (P30968 1-328): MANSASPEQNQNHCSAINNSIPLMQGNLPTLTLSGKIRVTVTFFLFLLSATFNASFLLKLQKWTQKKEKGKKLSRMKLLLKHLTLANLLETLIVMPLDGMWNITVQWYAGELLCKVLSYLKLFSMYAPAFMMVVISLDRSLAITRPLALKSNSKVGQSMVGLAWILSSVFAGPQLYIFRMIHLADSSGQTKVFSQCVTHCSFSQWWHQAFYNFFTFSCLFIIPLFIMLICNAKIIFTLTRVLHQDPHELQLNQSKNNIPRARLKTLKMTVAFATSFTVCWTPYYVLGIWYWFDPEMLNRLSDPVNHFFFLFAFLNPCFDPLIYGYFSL
Description: Gonadotrophin-releasing hormone receptors (GnRH, LH-RH)R are a family of G protein-coupled receptors for GnRH, which promotes the secretion of luteinizing hormone (LH) and follicle-stimulating hormone (FSH). The activation of this receptor promotes, through estrogen receptors (ER) located in the cytosol, an increase in gene transcription and activation of tumor suppressor genes, DNA repair, cell division and cell proliferation. GnRH agonists are useful in breast, prostate and ovarian cancer, endometriosis, melanoma, rheumatoid arthritis and Alzheimer's disease. Table 17 presents the results from radioligand binding studies for GnRH for selected compounds using human recombinant Chem-1 cells (Halmos G, Schally AV, Pinski J, Vadillo-Buenfill M, Groot K. Down regulation of pituitary receptors for luteinizing hormone-releasing hormone (LH-RH) in rats by LH-RH antagonist Cetrorelix. Prco Natl Acad Sci USA 1996;93(6):2398-2402). The specific and non specific ligands used were [^125l] [D-Trp^6]-LH-RH (0.05 nM) and [D-Trp^6]-LH-RH ([…]) and after 60 min of incubation at 25°C in a 50 mM HEPES, pH 7.5, 5 mM MgCl2, 1 mM CaCl2, and 0.2% BSA the activity was measured by radioligand binding. Table 17. GnRH radioligand binding assay

Src = target: T2, Src (Homo sapiens, UniProt P12931); assay: Src protein tyrosine kinase inhibition (ELISA of Poly[Glu:Tyr-P]); assay type: biochemical; conditions: Src, at 10 µM; read-out: % Inhibition
T2 construct: host or cells: Sf9 insect cells
T2 sequence (P12931 whole entry): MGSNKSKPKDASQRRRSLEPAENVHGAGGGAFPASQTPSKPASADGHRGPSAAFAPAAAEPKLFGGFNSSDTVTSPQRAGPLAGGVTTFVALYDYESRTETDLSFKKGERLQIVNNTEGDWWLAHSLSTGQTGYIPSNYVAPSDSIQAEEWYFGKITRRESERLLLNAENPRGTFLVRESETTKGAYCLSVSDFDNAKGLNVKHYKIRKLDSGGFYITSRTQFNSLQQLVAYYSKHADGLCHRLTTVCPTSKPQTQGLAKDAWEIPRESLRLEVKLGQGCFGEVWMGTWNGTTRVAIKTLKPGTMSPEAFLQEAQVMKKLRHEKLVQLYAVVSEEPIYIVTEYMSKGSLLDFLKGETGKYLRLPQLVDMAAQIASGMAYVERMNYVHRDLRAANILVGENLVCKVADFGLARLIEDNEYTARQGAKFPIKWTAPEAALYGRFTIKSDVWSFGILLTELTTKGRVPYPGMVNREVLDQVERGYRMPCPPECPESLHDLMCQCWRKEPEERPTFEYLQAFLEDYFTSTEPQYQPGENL
Procedure: Src protein tyrosine kinase activity was assessed in human recombinant insect Sf9 cells using as a substrate Poly(Glu:Tyr) at 10 µg/mL with preincubation and incubation times of 15 and 5 min, respectively, at 22°C in 50 mM HEPES, pH 7.4, 1 mM DTT, 20 mM MgCl2 and 0.2 mM Na3VO4. An ELISA quantitation method of Poly[Glu:Tyr-P] was employed (Farley, K et al. Anal Biochem, 1992, 203, 151-157). Table 4. Inhibition of Src at 10 µM

[2] = Maximum Tolerated Dose after acute administration; conditions: mouse, in vivo, ip, mice
Procedure: The Maximum Tolerated Dose (MTD) in mice was determined for selected compounds. The protocol of the studies was in accordance with the standard guidelines for drug development: • (htp://dtp.nci.nih.gov/branches/btb/acute tox.html). Table 10. Maximum Tolerated Doses in mice after acute i.p. administration

mice [3] = assay: Formalin test (antinociceptive activity); assay type: in vivo
Procedure: The chemical irritant formalin test is used as a chronic pain model in animals. The s.c. administration of formalin to the paw of a mouse produces a biphasic nociceptive behavioral response, an early response (0-5 min after injection) and a late response (20-30 min after injection) (Hunskaar, S., Fasmer, O.B., Hole, K. Formalin test in mice, a useful technique for evaluating mild analgesics. J Neurosci Methods, 1985 ;14(1):69-76).
Aspirine and paracetamol are included as external active references in early and late response. Table 12. Early and late response inhibition in the formalin test.

mice [4] = assay: Hot plate test (analgesic activity); assay type: in vivo; conditions: 10 and 30 mg/kg i.p.
Procedure: The hot plate test was used as an animal model of thermally-induced pain. The inhibitory activity measured on the time licking and biting induced by temperature (30 sec max at 55°C) indicates analgesic effect. […] Table 13. Analgesic activity of example 1 in the hot plate test

tumor breast MDA-MB-231 = assay: Tumor cell proliferation assay (alamarBlue); assay type: cell-based; conditions: Homo sapiens; tumor breast MDA-MB-231; read-out: IC50
Procedure: (§1) Changes in cell proliferation were detected based on the ability of viable cells to cause alamarBlue® to change its oxidized (non-fluorescent, blue) to a reduced (fluorescent, red) form. The alamarBlue® reaction allows the quantification of cell proliferation and examination of the metabolic activity of viable cells. Test substances were examined for activity on the proliferation of human or murine tumor cell lines at assay concentrations from 0.01 to 100 µM.

tumor breast MCF-7 = assay: Tumor cell proliferation assay (alamarBlue); assay type: cell-based; conditions: Homo sapiens, MCF7; tumor breast MCF-7; read-out: IC50
Procedure: as §1

tumor breast T-47D = assay: Tumor cell proliferation assay (alamarBlue); assay type: cell-based; conditions: Homo sapiens, T47D; tumor breast T-47D; read-out: IC50
Procedure: as §1

tumor colon HCT-116 = assay: Tumor cell proliferation assay (alamarBlue); assay type: cell-based; conditions: Homo sapiens; tumor colon HCT-116; read-out: IC50
Procedure: as §1

tumor liver Hep 3B = assay: Tumor cell proliferation assay (alamarBlue); assay type: cell-based; conditions: Homo sapiens, Hep3B; tumor liver Hep 3B; read-out: IC50
Procedure: as §1

tumor lung A549 = assay: Tumor cell proliferation assay (alamarBlue); assay type: cell-based; conditions: Homo sapiens; tumor lung A549; read-out: IC50
Procedure: as §1

tumor liver HepG2 = assay: Tumor cell proliferation assay (alamarBlue); assay type: cell-based; conditions: Homo sapiens; tumor liver HepG2; read-out: IC50
Procedure: as §1

tumor brain U-87 MG = assay: Tumor cell proliferation assay (alamarBlue); assay type: cell-based; conditions: Homo sapiens; tumor brain U-87 MG; read-out: IC50
Procedure: as §1

tumor prostate LNCaP-FGC = assay: Tumor cell proliferation assay (alamarBlue); assay type: cell-based; conditions: Homo sapiens; tumor prostate LNCaP-FGC; read-out: IC50
Procedure: as §1

tumor ovary OVCAR-3 = assay: Tumor cell proliferation assay (alamarBlue); assay type: cell-based; conditions: Homo sapiens; tumor ovary OVCAR-3; read-out: IC50
Procedure: as §1

tumor leukaemia K562 = assay: Tumor cell proliferation assay (alamarBlue); assay type: cell-based; conditions: Homo sapiens; tumor leukaemia K562; read-out: IC50
Procedure: as §1

tumor melanoma B16-FO = assay: Tumor cell proliferation assay (alamarBlue); assay type: cell-based, murine; conditions: Mus musculus; tumor melanoma B16-FO; read-out: IC50
Procedure: as §1

NE Uptake = assay: Norepinephrine uptake inhibition; assay type: biochemical
5-HT Uptake = assay: Serotonin uptake inhibition in brain synaptosomes; assay type: biochemical, rat
Procedure: Inhibition of serotonin uptake has been tested in rat brain synaptosomes using [^3H]serotonin (0.2 µCi/ml) after 15 min of incubation at 37°C and measuring the incorporation of [^3H]serotonin into synaptosomes by scintillation counting (Perovic, S. and Muller, W.E.G. Arzneim-Forsch. Drug Res., 1995, 45, 1145-1148).

NET = target: T3, NET (Homo sapiens, UniProt P23975); assay: Norepinephrine transporter binding ([3H]nisoxetine)
T3 construct: expressed in transfected cells; host or cells: CHO cells
T3 sequence (P23975 whole entry): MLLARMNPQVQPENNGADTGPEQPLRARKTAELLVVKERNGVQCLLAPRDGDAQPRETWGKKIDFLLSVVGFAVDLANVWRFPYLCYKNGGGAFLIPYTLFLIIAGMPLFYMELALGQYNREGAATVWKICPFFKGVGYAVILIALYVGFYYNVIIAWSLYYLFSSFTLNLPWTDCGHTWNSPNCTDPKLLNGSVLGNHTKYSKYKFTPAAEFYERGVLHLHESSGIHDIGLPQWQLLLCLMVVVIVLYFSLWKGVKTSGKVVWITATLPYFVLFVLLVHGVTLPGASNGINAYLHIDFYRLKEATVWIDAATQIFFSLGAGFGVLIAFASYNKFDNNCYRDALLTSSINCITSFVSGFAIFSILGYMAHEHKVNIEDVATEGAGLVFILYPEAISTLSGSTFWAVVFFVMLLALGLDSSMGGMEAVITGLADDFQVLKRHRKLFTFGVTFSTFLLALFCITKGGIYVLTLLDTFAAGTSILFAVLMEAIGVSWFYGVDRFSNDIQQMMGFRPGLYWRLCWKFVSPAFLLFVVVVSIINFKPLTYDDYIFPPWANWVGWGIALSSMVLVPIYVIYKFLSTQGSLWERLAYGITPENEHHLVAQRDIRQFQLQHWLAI
Procedure: (§2) Serotonin transporter (SERT) inhibitors increase extracellular concentrations of serotonin (5-HT) and amplify signals sent by serotonin neurons. Agents that block SERT have been studied for the treatment of several diseases including depression and anxiety. Inhibitors of monoamine transporters have been tested for NET (Pacholczyk, T. et al. Nature, 1991, 350, 350-354) and SERT (Tatsumi, M. et al. Eur J Pharmacol, 1999, 368, 277-283). Norepinephrine transport was assessed in human recombinant CHO cells using [^3H]nisoxetine as a ligand at 1 nM after 60 min of incubation at 22°C, and a scintillation method as a method of detection. Serotonine transport was assessed in human recombinant CHO cells using [^3H]imipramine as a ligand at 2 nM after 60 min of incubation at 22°C, and a scintillation counting as a method of detection.

SERT = target: T4, SERT (Homo sapiens, UniProt P31645); assay: Serotonin transporter binding ([3H]imipramine)
T4 construct: expressed in transfected cells; host or cells: CHO cells
T4 sequence (P31645 whole entry): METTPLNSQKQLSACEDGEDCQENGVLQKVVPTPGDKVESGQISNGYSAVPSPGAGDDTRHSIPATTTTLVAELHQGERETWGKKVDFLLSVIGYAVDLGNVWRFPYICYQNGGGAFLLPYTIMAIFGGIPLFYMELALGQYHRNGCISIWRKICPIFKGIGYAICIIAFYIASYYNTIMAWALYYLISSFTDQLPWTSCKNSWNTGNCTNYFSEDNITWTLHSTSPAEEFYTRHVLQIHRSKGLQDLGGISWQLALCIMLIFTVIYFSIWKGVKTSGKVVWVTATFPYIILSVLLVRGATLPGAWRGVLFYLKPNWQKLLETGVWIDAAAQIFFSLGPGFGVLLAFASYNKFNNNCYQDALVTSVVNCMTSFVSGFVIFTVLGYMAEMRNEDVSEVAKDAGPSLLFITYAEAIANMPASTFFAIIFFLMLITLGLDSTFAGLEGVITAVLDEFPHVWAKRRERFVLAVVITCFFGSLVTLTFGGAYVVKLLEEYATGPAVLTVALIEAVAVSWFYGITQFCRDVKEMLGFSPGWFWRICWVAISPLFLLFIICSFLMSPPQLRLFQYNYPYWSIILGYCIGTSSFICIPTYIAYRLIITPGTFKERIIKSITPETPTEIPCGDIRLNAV
Procedure: as §2

5-HT2A receptor = target: T5, 5-HT2A receptor (Homo sapiens, UniProt P28223); assay: 5-HT2A receptor binding ([3H]ketanserin); conditions: 5-HT2A binding
T5 construct: expressed in transfected cells; host or cells: HEK-293 cells
T5 sequence (P28223 whole entry): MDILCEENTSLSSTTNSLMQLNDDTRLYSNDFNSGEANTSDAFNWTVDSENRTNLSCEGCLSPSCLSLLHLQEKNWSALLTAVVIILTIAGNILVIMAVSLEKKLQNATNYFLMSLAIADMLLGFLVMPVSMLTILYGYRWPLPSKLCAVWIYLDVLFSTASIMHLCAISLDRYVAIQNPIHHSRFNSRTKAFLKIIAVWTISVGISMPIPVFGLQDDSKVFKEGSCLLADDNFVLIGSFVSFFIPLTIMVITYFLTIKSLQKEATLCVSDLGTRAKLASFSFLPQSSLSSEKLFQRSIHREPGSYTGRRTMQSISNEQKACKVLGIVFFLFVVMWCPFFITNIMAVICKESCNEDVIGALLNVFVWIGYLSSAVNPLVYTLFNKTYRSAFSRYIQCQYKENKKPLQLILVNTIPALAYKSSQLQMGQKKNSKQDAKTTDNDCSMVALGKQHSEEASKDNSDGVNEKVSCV
Procedure: The 5-HT2A receptor belongs to the G-protein-coupled receptor (GPCR) target class linked to anxiety and depression. Using human recombinant HEK-293 cells, the binding of compounds of formula (I) to this receptor was determined. The ligand used was [^3H]ketanserin at 0.5 nM and the quantification of the activity was assessed by scintillation counting after 60 min at 22°C (Bonhaus, et al. Br J Pharmacol, 1995, 115, 622-628). Table 16. Inhibition of 5-HT2A binding

mice [5] = conditions: i.p. in mice, comparative antineoplastic agents; cited from earlier work

## C=CCc1ccc(OC)c(-c2cc(CC=C)ccc2OC(CCNC)c2ccccc2)c1.Cl (stereo not drawn) [Example 2, 5,5'-Diallyl-2-methoxy-2'-[3-(methylamino)-1-phenylpropoxy]biphenyl hydrochloride]
[1]
  inhibition at 10 µM: 33%
Src
  inhibition at 10 µM: 55%
[2]
  MTD: 50 mg/kg
Mice [3]; 30 mg/kg i.p, early and late phases, potency similar to morphine 10 mg/kg i.p.
  antinociceptive activity in the formalin test: to a lesser extent
Mice [3]; 10 and 30 mg/kg i.p, late phase
  antinociceptive activity in the formalin model: dose-dependent antinociceptive activity
Mice [3]; formalin test, dose 30 mg/Kg i.p., early response 0-5 min
  Early Response: inactive
Mice [3]; formalin test, dose 30 mg/Kg i.p., late response 20-30 min
  Late Response: active
Mice [4]
  antinociceptive activity in the hot plate test: Dose-dependent antinociceptive activity
Tumor breast MDA-MB-231
  IC50: 2.1 µM
Tumor breast MCF-7
  IC50: 2.6 µM
Tumor breast T-47D
  IC50: 12 µM
Tumor colon HCT-116
  IC50: 2.1 µM
Tumor liver Hep 3B
  IC50: 3.2 µM
Tumor lung A549
  IC50: 1.3 µM
Tumor liver HepG2
  IC50: 3.6 µM
Tumor brain U-87 MG
  IC50: 2.2 µM
Tumor prostate LNCaP-FGC
  IC50: 1.8 µM
Tumor ovary OVCAR-3
  IC50: 2.3 µM
Tumor leukaemia K562
  IC50: 4.2 µM
Tumor melanoma B16-FO
  IC50: 2.3 µM

## C=CCc1ccc(OCC)c(-c2cc(CC=C)ccc2OC(CCNC)c2ccccc2)c1 (stereo not drawn) [Example 3, 5,5'-Diallyl-2-ethoxy-2'-[3-(methylamino)-1-phenylpropoxylbiphenyl hydrochloride]
NE Uptake
  % Inhibition (5.0 µM) NE Uptake: 85%
5-HT Uptake
  % Inhibition (5.0 µM) 5-HT Uptake: 52%
NET
  inhibition at 5 µM: 87%
SERT
  inhibition at 5 µM: 73%
5-HT2A receptor
  inhibition at 5 µM: 86%

## N.N.[Cl][Pt][Cl] [cisplatin]
Mice [5]
  MTD: 4 mg/kg

## CC(=O)O[C@H]1C(=O)[C@@]2(C)[C@H]([C@H](OC(=O)c3ccccc3)[C@]3(O)C[C@H](OC(=O)[C@H](O)[C@@H](NC(=O)c4ccccc4)c4ccccc4)C(C)=C1C3(C)C)[C@]1(OC(C)=O)CO[C@@H]1C[C@@H]2O [placlitaxel]
Mice [5]
  MTD: 20 to 50 mg/kg
